Source: patent US11433048B2, “CXCR4 receptor-binding compounds useful for increasing interferon level” (CENTRE NATIONAL de la RECHERCHE SCIENTIFIQUE, priority 2016, dated 2022)
Structures can show the parent of a compound that is named as a salt. Where two headings read alike, the source gives them in different places.

Assays:
[1] = system: HIV-activated pDC; type: cell-based, human
[2] = system: HIV-activated pDC; settings: ELISA, AMD3100 20 μM pre-treatment, then CB, HIV overnight
[3] = AMD3100 20 μM pre-incubation, histamine or CB 10 μM, HIV-X4 overnight, normalized to RPL13A
[4] = AMD3100 alone, HIV-stimulated pDC
[5] = AMD-3100 20 μM, then CB 10 μM, HIV overnight, normalized to RPL13A

In the case of `c1cc(CN2CCCNCCNCCCNCC2)ccc1CN1CCCNCCNCCCNCC1` [AMD3100, plerixafor], the “IFN-a mRNA expression inhibited by histamine or CB in HIV-activated pDC (FIG. 1)” value [1, 3] is reported as “could restore”, the “IFN-β mRNA expression inhibited by histamine or CB in HIV-activated pDC (FIG. 1)” value [1, 3] is reported as “could restore” and the “TRAIL mRNA expression inhibited by histamine or CB in HIV-activated pDC (FIG. 1)” value [1, 3] is reported as “could restore”. The “biological activities of histamine and CB on HIV activated-pDC” value ([1]; AMD3100 (20 μM) 1 hour, then histamine or CB (10 μM) 1 hour, HIV-1 overnight) was “drastically abolished”, the “TRAIL expression by HIV-activated pDC” value [1, 4] was “did not block” and the “type I IFN expression by HIV-activated pDC” value [1, 4] was “did not block”. The “IFN-stimulated gene 56 (ISG56) mRNA expression in HIV-activated pDC (restoration, FIG. 3A)” value [1, 5] was “confirmed”, the “IFN-γ mRNA expression in HIV-activated pDC (restoration, FIGS. 3A-3C)” value [1, 5] was “confirmed” and the “IL-6 mRNA expression in HIV-activated pDC (restoration, FIG. 3C)” value [1, 5] was “confirmed”. For the same compound, the “IFN-a production inhibited by histamine or CB in HIV-activated pDC (FIG. 2)” value [2] was “could restore”.

In the case of `NC(=NCc1ccc(Cl)cc1)SCCCc1cnc[nH]1` [CB, clobenpropit dihydrobromide], the “production of IFN-I by HIV-stimulated pDC” value ([1]; amine-type compounds, 10 μM) is reported as “inhibit”.

`Cl.Cl.NCCc1c[nH]cn1` [histamine, Histamine dihydrochloride] was tested, and the “production of IFN-I by HIV-stimulated pDC” value [1] was “inhibit”.
